Experimental data reported in US12329158B2, “Large-scale methods of uniformly coating packaging surfaces with a volatile antimicrobial to preserve food freshness” (AGROFRESH INC., priority 2013, dated 2025).
In brackets after ≈: the same amount, converted by molar mass.

What was measured:
[1] = system: Penicillium expansum; assay: In vitro volatile assay (Example 24); assay type: cell-based; settings: 72 h, headspace, 100% control, 3 days at 23 C, read-out: Volatile MIC (mg/L) P. expansum
Experimental: (§1) Volatile assay: 12-well (6.5 mL volume per well) microtiter plates are used. A 3-mL volume of half strength PDA is added to each well. […] A Whatman #1 filter disk (Cat. No. 1001-0155) is placed, in duplicate, on the underside of a polyethylene PCR plate sealing film. […] The acetone is permitted to evaporate for 5 minutes. The headspace around the inoculum is then sealed inside the well by the film with the adhering disk containing the fungicide. Plates are inverted, placed over the treated disks, and sealed to prevent any of the chemical from flaking from the disk and falling onto the inoculated agar. […] Contact assay: 6-well (16.5 mL volume per well) microtiter plates are used for an in vitro inhibition assay. […] A 7.5-mL volume of the amended media is added to each well of the microtiter plate. […] The plates are sealed with a clear film and incubated for 3 days at 23° C. After incubation, plates are evaluate for percent growth relative to acetone only control.

[2] = system: Botrytis cinerea; assay: In vitro volatile assay (Example 24); assay type: cell-based; settings: 72 h, headspace, 100% control, 3 days at 23 C, read-out: Volatile MIC (mg/L) B. cinerea
Experimental: as §1

[3] = system: Botrytis cinerea; assay: Gray mold on strawberry, contact assay (Example 23); assay type: in vivo
Experimental: Eight strawberries (per repetition, in triplicate) are placed in an industry standard 1-lb PET clamshell with the stem-end facing down.
Contact Assay: Compound A is dissolved in 85% methanol to achieve a final concentration of 250, 50, 10, or 2 mg/L. A 250 mL solution of each concentration is used to dip eight inoculated strawberry fruit for one-minute, performed in triplicate per rate. The dipped fruits are then placed back into the clamshells, which are then placed in a secondary container and incubated at 1° C. for 5 days. After incubation, fruits are evaluated for disease severity (scale 0 to 4, with ≤1 indicating marketable fruit and 4 indicating ≥50% of fruit surface covered by pathogen) up to 4 days at 21° C.

[4] = system: Botrytis cinerea; assay: Volatilization from treated clamshells onto inoculated agar plates (Example 2); assay type: cell-based
Experimental: An in vitro assay was used to evaluate the ability of Compound A to volatilize from a clamshell to control fungal pathogenic infection when applied to the clamshell by various application techniques. Multiple empty 1-lb PET clamshells (ProducePackaging.com, #036QT) were placed inside triplicate air-tight 36 L chamber (Fisher Scientific, Catalogue #08-642-23C) fitted with a bulkhead septum port (Swagelok, SS-401-61, Solon, OH).
Compound A headspace was permitted to equilibrate overnight at 21° C.
After spraying or painting, the clamshell was then permitted to dry for 5 minutes. After coating the clamshells with Compound A using various applications (i.e., sublimation, spraying, or painting), 10-cm Petri plates containing half strength Potato Dextrose Agar were inoculated with 1 μL of 1×10^5 spores/ml Botrytis cinerea spore suspension. The inoculated petri plates were then sealed with a breathable film (AeraSeal; P/N: B-100, Excel Scientific, Victorville, CA), and placed inside the treated clamshell.
(Series I). After incubation, plates were removed and cultures were evaluated for percent growth relative to a control based on measurement of fungal colony diameter (mm).
Meanwhile, freshly prepared inoculated plates were placed inside the clamshell for an additional three (3) days of incubation (Series 2). This process, where freshly prepared inoculated plates were placed inside the clamshell, was repeated twice more, to produce a 12 full day evaluation of 4 series of 3 days each.

SMILES: OB1OCc2cc(F)ccc21 [Compound A, 5-fluoro-1,3-dihydro-1-hydroxy-2,1-benzoxaborole]
- MIC [1]: 2.2 mg/L (≈ 14.5 µM)
- MIC [2]: 0.3 mg/L (≈ 1.97 µM)
- Disease Severity (0 to 4) ([3]; 2 mg/L, Day 0): 0.0
- Disease Severity (0 to 4) ([3]; 2 mg/L, Day 1): 0.0
- Disease Severity (0 to 4) ([3]; 2 mg/L, Day 2): 0.6
- Disease Severity (0 to 4) ([3]; 2 mg/L, Day 3): 1.1
- Disease Severity (0 to 4) ([3]; 2 mg/L, Day 4): 1.9
- Disease Severity (0 to 4) ([3]; 10 mg/L, Day 0): 0.0
- Disease Severity (0 to 4) ([3]; 10 mg/L, Day 1): 0.0
- Disease Severity (0 to 4) ([3]; 10 mg/L, Day 2): 0.0
- Disease Severity (0 to 4) ([3]; 10 mg/L, Day 3): 0.3
- Disease Severity (0 to 4) ([3]; 10 mg/L, Day 4): 1.0
- Disease Severity (0 to 4) ([3]; 50 mg/L, Day 0): 0.0
- Disease Severity (0 to 4) ([3]; 50 mg/L, Day 1): 0.0
- Disease Severity (0 to 4) ([3]; 50 mg/L, Day 2): 0.0
- Disease Severity (0 to 4) ([3]; 50 mg/L, Day 3): 0.0
- Disease Severity (0 to 4) ([3]; 50 mg/L, Day 4): 0.0
- Disease Severity (0 to 4) ([3]; 250 mg/L, Day 0): 0.0
- Disease Severity (0 to 4) ([3]; 250 mg/L, Day 1): 0.0
- Disease Severity (0 to 4) ([3]; 250 mg/L, Day 2): 0.0
- Disease Severity (0 to 4) ([3]; 250 mg/L, Day 3): 0.0
- Disease Severity (0 to 4) ([3]; 250 mg/L, Day 4): 0.0
- Mycelial Growth Inhibition (%) ([4]; Paint, 0.2 mg/clamshell, Series 1 (0 to 3 days)): 3.4%
- Mycelial Growth Inhibition (%) ([4]; Paint, 1 mg/clamshell, Series 1 (0 to 3 days)): 100.0%
- Mycelial Growth Inhibition (%) ([4]; Paint, 1 mg/clamshell, Series 2 (3 to 6 days)): 18.8%
- Mycelial Growth Inhibition (%) ([4]; Paint, 5 mg/clamshell, Series 1 (0 to 3 days)): 100.0%
- Mycelial Growth Inhibition (%) ([4]; Paint, 5 mg/clamshell, Series 2 (3 to 6 days)): 100.0%
- Mycelial Growth Inhibition (%) ([4]; Paint, 5 mg/clamshell, Series 3 (6 to 9 days)): 57.5%
- Mycelial Growth Inhibition (%) ([4]; Paint, 5 mg/clamshell, Series 4 (9 to 12 days)): 44.7%
- Mycelial Growth Inhibition (%) ([4]; Spray, 0.2 mg/clamshell, Series 1 (0 to 3 days)): 81.2%
- Mycelial Growth Inhibition (%) ([4]; Spray, 1 mg/clamshell, Series 1 (0 to 3 days)): 100.0%
- Mycelial Growth Inhibition (%) ([4]; Spray, 1 mg/clamshell, Series 2 (3 to 6 days)): 18.6%
- Mycelial Growth Inhibition (%) ([4]; Spray, 1 mg/clamshell, Series 3 (6 to 9 days)): 0.0%
- Mycelial Growth Inhibition (%) ([4]; Spray, 5 mg/clamshell, Series 1 (0 to 3 days)): 100.0%
- Mycelial Growth Inhibition (%) ([4]; Spray, 5 mg/clamshell, Series 2 (3 to 6 days)): 100.0%
- Mycelial Growth Inhibition (%) ([4]; Spray, 5 mg/clamshell, Series 3 (6 to 9 days)): 61.2%
- Mycelial Growth Inhibition (%) ([4]; Spray, 5 mg/clamshell, Series 4 (9 to 12 days)): 64.9%
- Mycelial Growth Inhibition (%) ([4]; Sublimation, 0.2 mg/clamshell, Series 1 (0 to 3 days)): 90.9%
- Mycelial Growth Inhibition (%) ([4]; Sublimation, 0.2 mg/clamshell, Series 3 (6 to 9 days)): 0.0%
- Mycelial Growth Inhibition (%) ([4]; Sublimation, 1 mg/clamshell, Series 1 (0 to 3 days)): 90.1%
- Mycelial Growth Inhibition (%) ([4]; Sublimation, 5 mg/clamshell, Series 1 (0 to 3 days)): 100.0%
- Mycelial Growth Inhibition (%) ([4]; Sublimation, 5 mg/clamshell, Series 2 (3 to 6 days)): 100.0%
- Mycelial Growth Inhibition (%) ([4]; Sublimation, 5 mg/clamshell, Series 3 (6 to 9 days)): 83.1%
- Mycelial Growth Inhibition (%) ([4]; Sublimation, 5 mg/clamshell, Series 4 (9 to 12 days)): 84.4%
